# Data taken from US10138212B2, “Aminoquinazoline compounds as A2A antagonist” (Merck Sharp & Dohme Corp., priority 2015, dated 2018).
# Assays:
# human A1 receptor = human A1 receptor (Homo sapiens (Human), UniProt P30542); assay: A1 competition binding assay using Scintillation Proximity technology; selectivity = A1 binding Ki / A2a binding Ki; conditions: A1 binding Ki divided by A2a binding Ki
# Outline: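 SPA competition using 5 ug membranes from CHO-K1 cells expressing human A1, pretreated with adenosine deaminase. Radioligand was 0.7 nM [3H]DPCPX (final), with compound at 3000–0.15 nM in DPBS + 10 mM MgCl2. Incubation was 1 h at room temperature. Non-specific binding was defined with 1 uM DPCPX, and Ki was derived as for A2a.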
# human A2a receptor = human A2a receptor (Homo sapiens (Human), UniProt P29274); assay: A2a competition binding assay using Scintillation Proximity technology
# Outline: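 Membranes (0.25 or 1 μg) from HEK293 expressing the receptor were pretreated with adenosine deaminase and bound to WGA-coated yttrium silicate SPA beads. They were incubated 1 h at room temperature with compound at 3000–0.15 nM and 0.5 nM tritiated pyrazolotriazolopyrimidine ligand in Ca/Mg-free DPBS with 10 mM MgCl2. Ki was derived from […] by Cheng-Prusoff.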
# [1] = 0.25 μg of membranes from HEK293 cells expressing the human A2a receptor
# [2] = * assay run with 1 μg of membranes versus 0.25 μg, HEK293 cells expressing the human A2a receptor
# Sequence of human A2a receptor (P29274 whole entry): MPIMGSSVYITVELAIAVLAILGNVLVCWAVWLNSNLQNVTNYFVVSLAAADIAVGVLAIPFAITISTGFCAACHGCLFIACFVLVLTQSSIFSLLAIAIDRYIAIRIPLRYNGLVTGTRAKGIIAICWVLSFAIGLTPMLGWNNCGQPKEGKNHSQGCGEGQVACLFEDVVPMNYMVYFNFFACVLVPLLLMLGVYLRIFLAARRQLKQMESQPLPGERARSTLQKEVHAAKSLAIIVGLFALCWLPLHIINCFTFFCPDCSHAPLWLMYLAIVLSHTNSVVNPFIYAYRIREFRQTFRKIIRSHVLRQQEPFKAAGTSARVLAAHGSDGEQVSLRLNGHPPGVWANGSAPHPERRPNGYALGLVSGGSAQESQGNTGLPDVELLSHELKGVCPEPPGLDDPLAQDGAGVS
# Sequence of human A1 receptor (P30542 whole entry): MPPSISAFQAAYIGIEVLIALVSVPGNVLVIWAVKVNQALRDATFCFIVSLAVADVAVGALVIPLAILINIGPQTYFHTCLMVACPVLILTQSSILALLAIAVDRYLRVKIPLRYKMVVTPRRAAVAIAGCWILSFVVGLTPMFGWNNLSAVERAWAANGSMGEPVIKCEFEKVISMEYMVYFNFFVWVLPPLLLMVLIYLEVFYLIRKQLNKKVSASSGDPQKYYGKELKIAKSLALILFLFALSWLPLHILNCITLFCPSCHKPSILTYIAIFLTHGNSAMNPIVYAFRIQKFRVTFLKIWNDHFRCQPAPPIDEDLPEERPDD
Compound,A2a selectivity (A2a A1 binding selectivity) (human A1 receptor),Ki (human A2a receptor; [1]) [nM],Ki (human A2a receptor; [2]) [nM]
"COc1cccc2c(C(=O)NCc3cccc(C4CC4)n3)nc(N)nc12 [Example 7, 2-amino-N-[(6-cyclopropyl-2-pyridyl)methyl]-8-methoxy-quinazoline-4-carboxamide]",169,0.3,–
"COc1cccc2c(C(=O)NCc3cccc4ccncc34)nc(N)nc12 [Example 16, 2-amino-N-(8-isoquinolylmethyl)-8-methoxy-quinazoline-4-carboxamide]",114,0.3,–
"COc1cccc2c(C(=O)NCc3ccc(F)cn3)nc(N)nc12 [Example 26, 2-amino-N-[(5-fluoro-2-pyridyl)methyl]-8-methoxy-quinazoline-4-carboxamide]",89,6.6,–
"COc1ccc(CNC(=O)c2nc(N)nc3c(OC)cccc23)nc1 [Example 22, 2-amino-8-methoxy-N-[(5-methoxy-2-pyridyl)methyl]quinazoline-4-carboxamide]",52,7.8,–
"COc1cccc2c(C(=O)NCc3cccn(C)c3=O)nc(N)nc12 [Example 61, 2-amino-8-methoxy-N-[(1-methyl-2-oxo-3-pyridyl)methyl]quinazoline-4-carboxamide]",100,0.9,–
"Cc1ccc(CCNC(=O)c2nc(N)nc3c(F)cccc23)nc1 [Example 73, 2-amino-8-fluoro-N-[2-(5-methyl-2-pyridyl)ethyl)quinazoline-4-carboxamide]",33,225,–
"COc1cccc2c(C(=O)NC(C)(C)c3ccccn3)nc(N)nc12 [Example 39, 2-amino-8-methoxy-N-[1-methyl-1-(2-pyridyl)ethyl]quinazoline-4-carboxamide]",9,415,–
"Nc1nc(C(=O)NCc2cccc(Cc3ccc(F)c(F)c3)n2)c2cccc(F)c2n1 [Example 102, 2-amino-N-[[6-[(3,4-difluorophenyl)methyl]-2-pyridyl]methyl]-8-fluoro-quinazoline-4-carboxamide]",33,1.2,–
"Nc1nc(C(=O)NCC2CCN(c3ncc(F)cn3)CC2)c2cccc(F)c2n1 [Example 86, 2-amino-8-fluoro-N-[[1-(5-fluoropyrimidin-2-yl)-4-piperidyl]methyl]quinazoline-4-carboxamide]",141,8,–
"COc1cccc2c(C(=O)NCc3ncc(F)cc3F)nc(N)nc12 [Example 29, 2-amino-N-[(3,5-difluoro-2-pyridyl)methyl]-8-methoxy-quinazoline-4-carboxamide]",118,2.9,–
"CC(C)Oc1cccc(-c2cccc(CNC(=O)c3nc(N)nc4c(F)cccc34)n2)c1 [Example 66, 2-amino-8-fluoro-N-[[6-(3-isopropoxyphenyl)-2-pyridyl]methyl]quinazoline-4-carboxamide]",3,–,3.8
"COc1cccc2c(C(=O)NCc3ncccc3F)nc(N)nc12 [Example 25, 2-amino-N-[(3-fluoro-2-pyridyl)methyl]-8-methoxy-quinazoline-4-carboxamide]",221,1.4,–
"CC(C)Oc1cccc(CNC(=O)c2nc(N)nc3c(F)cccc23)n1 [Example 78, 2-amino-8-fluoro-N-[(6-isoppropoxy-2-pyridyl)methyl]quinazoline-4-carboxamide]",75,1,–
"COc1cccc2c(C(=O)NCc3cccc(CO[C@H]4CCOC4)n3)nc(N)nc12 [Example 52, 2-amino-8-methoxy-N-[[6-[[(3S)-tetrahydrofuran-3-yl]oxymethyl]-2-pyridyl]methyl]quinazoline-4-carboxamide]",140,1.1,–
"COc1cccc2c(C(=O)NCc3ncccc3C)nc(N)nc12 [Example 24, 2-amino-8-methoxy-N-[(3-methyl-2-pyridyl)methyl]quinazoline-4-carboxamide]",180,0.9,–
"Cc1csc(-c2cccc(CNC(=O)c3nc(N)nc4c(F)cccc34)n2)n1 [Example 69, 2-amino-8-fluoro-N-[[6-(4-methylthiazol-2-yl)-2-pyridyl]methyl]quinazoline-4-carboxamide]",63,4.2,–
"COc1cccc2c(C(=O)NCc3cccc(CO)n3)nc(N)nc12 [Example 14, 2-amino-N-[[6-(hydroxymethyl)-2-pyridyl]methyl]-8-methoxy-quinazoline-4-carboxamide]",273,4.6,–

Compound,A2a selectivity (A2a A1 binding selectivity) (human A1 receptor),Ki (human A2a receptor; [1]) [nM],Ki (human A2a receptor; [2]) [nM]
"Nc1nc(C(=O)NCc2cccc(-c3ccccn3)n2)c2cccc(F)c2n1 [Example 63, 2-amino-8-fluoro-N-[[6-(2-pyridyl)-2-pyridyl]methyl]quinazoline-4-carboxamide]",59,0.8,–
"[2H]C([2H])(NC(=O)c1nc(N)nc2c(OC)cccc12)c1cccc(C([2H])([2H])c2ccc(C(C)(C)OCOC)nc2)n1 [Example 109, 2-amino-N-[dideuterio-[6-[dideuterio-[6-[1-(methoxymethoxy)-1-methyl-ethyl]-3-pyridyl]methyl]-2-pyridyl]methyl]-8-methoxy-quinazoline-4-carboxamide]",120,–,2.3
"COc1cccc(CNC(=O)c2nc(N)nc3c(OC)cccc23)n1 [Example 21, 2-amino-8-methoxy-N-[(6-methoxy-2-pyridyl)methyl]quinazoline-4-carboxamide]",82,0.8,–
"COc1ccc(C(C)(C)O)nc1CNC(=O)c1nc(N)nc2c(OC)cccc12 [Example 1, 2-amino-N-[[6-(1-hydroxy-1-methyl-ethyl)-3-methoxy-2-pyridyl]methyl]-8-methoxy-quinazoline-4-carboxamide]",145,10,–
"COc1cccc2c(C(=O)NCc3cccc(C(C)C)n3)nc(N)nc12 [Example 5, 2-amino-N-[(6-isopropyl-2-pyridyl)methyl]-8-methoxy-quinazoline-4-carboxamide]",146,0.2,–
"COc1cccc2c(C(=O)NCc3cccc(C(F)(F)F)n3)nc(N)nc12 [Example 18, 2-amino-8-methoxy-N-[[6-(trifluoromethyl)-2-pyridyl]methyl]quinazoline-4-carboxamide]",412,0.4,–
"Cc1ccc(CNC(=O)c2nc(N)nc3c(F)cccc23)nc1 [Example 72, 2-amino-8-fluoro-N-[(5-methyl-2-pyridyl)methyl]quinazoline-4-carboxamide]",30,6.1,–
"COc1cccc2c(C(=O)N[C@H]3CCCc4cccnc43)nc(N)nc12 [Example 35, 2-amino-8-methoxy-N-[(8S)-5,6,7,8-tetrahydroquinolin-8-yl]quinazoline-4-carboxamide]",48,180,–
"COc1cccc2c(C(=O)NCc3cccc(COCC4CC4)n3)nc(N)nc12 [Example 50, 2-amino-N-[[6-(cyclopropylmethoxy-methyl)-2-pyridyl]methyl]-8-methoxy-quinazoline-4-carboxamide]",160,1.3,–
"Nc1nc(C(=O)NCc2cccc(COc3ccccn3)n2)c2cccc(F)c2n1 [Example 46, 2-amino-8-fluoro-N-[[6-(2-pyridyloxymethyl)-2-pyridyl]methyl]quinazoline-4-carboxamide]",484,2.2,–
"Cc1ccc(F)c(CNC(=O)c2nc(N)nc3c(-c4ncco4)cccc23)n1 [Example 98, 2-amino-N-[(3-fluoro-6-methyl-2-pyridyl)methyl]-8-oxazol-2-yl-quinazoline-4-carboxamide]",133,1.7,–
"COc1cccc2c(C(=O)NCc3cccc(C)c3)nc(N)nc12 [Example 17, 2-amino-8-methoxy-N-(m-tolylmethyl)quinazoline-4-carboxamide]",184,0.4,–
"Nc1nc(C(=O)NCc2ccccc2-c2ncccn2)c2cccc(F)c2n1 [Example 64, 2-amino-8-fluoro-N-[(2-pyrimidin-2-ylphenyl)methyl]quinazoline-4-carboxamide]",235,0.9,–
"[2H]C([2H])(NC(=O)c1nc(N)nc2c(OC)cccc12)c1cccc(Oc2cncc(OC)c2)n1 [Example 58, 2-amino-N-[dideuterio-[6-[(5-methoxy-3-pyridyl)oxy]-2-pyridyl]methyl]-8-methoxy-quinazoline-4-carboxamide]",16,–,5
"Nc1nc(C(=O)NCc2cccc(Cc3ccccc3F)n2)c2cccc(F)c2n1 [Example 111, 2-amino-8-fluoro-N-[[6-[(2-fluorophenyl)methyl]-2-pyridyl]methyl]quinazoline-4-carboxamide]",28,–,1.3
"Cc1cccc(CNC(=O)c2nc(N)nc3c(Cl)cc(Cl)cc23)n1 [Example 93, 2-amino-6,8-dichloro-N-[(6-methyl-2-pyridyl)methyl]quinazoline-4-carboxamide]",55,6.5,–
